From the NIST ThermoML archive (doi:10.1021/je300630u)

Assays:
[1] = refractive index (other wavelength) (dimensionless); settings: 101 kPa, Liquid, Wavelength=632.8 nm, Standard Abbe refractometry
[2] = refractive index (other wavelength) (dimensionless); xn = mol fraction of the nth substance listed; settings: 295.84 K, 101.3 kPa, Liquid, Wavelength=632.8 nm, Standard Abbe refractometry

CCCCCCCCCCCCC [tridecane]
[1]
Settings | refractive index
293.2 K | 1.4244
294.26 K | 1.4239
295.29 K | 1.4234
295.84 K | 1.4231
296.33 K | 1.423
297.35 K | 1.4225
298.37 K | 1.4221
299.42 K | 1.4216
300.39 K | 1.4212
301.47 K | 1.4207

N#Cc1ccccc1 [benzonitrile]
[1]
Settings | refractive index
293.37 K | 1.5252
293.99 K | 1.5249
294.53 K | 1.5247
295.09 K | 1.5243
295.66 K | 1.5241
295.84 K | 1.5239
296.11 K | 1.5238
296.8 K | 1.5236
297.15 K | 1.5233
297.91 K | 1.523
298.2 K | 1.5228
298.8 K | 1.5225
298.83 K | 1.5226
299.26 K | 1.5223
300.06 K | 1.5219
300.12 K | 1.5219
300.31 K | 1.5218
301.13 K | 1.5214
301.23 K | 1.5214
301.35 K | 1.5213
302.26 K | 1.5209
302.31 K | 1.5209
302.42 K | 1.5208
303.41 K | 1.5203
304.49 K | 1.5198
305.64 K | 1.5192
306.89 K | 1.5186
307.88 K | 1.5181

CCCCCCCCCCCCC [tridecane] + N#Cc1ccccc1
Settings | refractive index
[2], x2 = 0 | 1.4231

N#Cc1ccccc1 [benzonitrile] + CCCCCCCCCCCCC
[2]
Settings | refractive index
x1 = 0.1148 | 1.428
x1 = 0.2007 | 1.4323
x1 = 0.3192 | 1.439
x1 = 0.3935 | 1.4443
x1 = 0.5 | 1.4525
x1 = 0.6113 | 1.4629
x1 = 0.7078 | 1.4738
x1 = 0.8007 | 1.4865
x1 = 0.9009 | 1.5032
x1 = 1 | 1.5239
